These results are taken from ChEMBL document CHEMBL1134078, “Structure-based design, synthesis and SAR of a novel series of thiopheneamidine urokinase plasminogen activator inhibitors” (Bioorg Med Chem Lett, 2001).

As usually defined, the Ki is a measure of affinity in units of concentration, obtained from inhibition or displacement. Higher therefore signals lower affinity.

The target of assay [1] is Urokinase-type plasminogen activator (Homo sapiens, UniProt P00749).
The next assay concerns the target Prothrombin (Homo sapiens, UniProt P00734). Briefly: Inhibitory activity against Thrombin (no observable inhibition at this screening concentration).
For assay [2], the target named is Tissue-type plasminogen activator (Homo sapiens, UniProt P00750). Briefly: Inhibitory activity against tissue plasminogen activator.
A further assay addresses Plasminogen (Homo sapiens, UniProt P00747). Briefly: Inhibitory activity against plasmin.
The target of the next assay is Serine protease 1 (Homo sapiens, UniProt P07477). Briefly: Inhibitory activity against Trypsin.
Sequence of Serine protease 1 (P07477 whole entry): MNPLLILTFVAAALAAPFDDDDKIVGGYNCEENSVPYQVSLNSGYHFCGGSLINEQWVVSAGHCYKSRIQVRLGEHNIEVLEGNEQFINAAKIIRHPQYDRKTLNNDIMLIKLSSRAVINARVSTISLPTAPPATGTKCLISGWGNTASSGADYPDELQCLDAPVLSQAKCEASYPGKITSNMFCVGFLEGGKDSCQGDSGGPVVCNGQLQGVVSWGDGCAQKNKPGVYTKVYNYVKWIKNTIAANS

Sequence of Tissue-type plasminogen activator (P00750 whole entry): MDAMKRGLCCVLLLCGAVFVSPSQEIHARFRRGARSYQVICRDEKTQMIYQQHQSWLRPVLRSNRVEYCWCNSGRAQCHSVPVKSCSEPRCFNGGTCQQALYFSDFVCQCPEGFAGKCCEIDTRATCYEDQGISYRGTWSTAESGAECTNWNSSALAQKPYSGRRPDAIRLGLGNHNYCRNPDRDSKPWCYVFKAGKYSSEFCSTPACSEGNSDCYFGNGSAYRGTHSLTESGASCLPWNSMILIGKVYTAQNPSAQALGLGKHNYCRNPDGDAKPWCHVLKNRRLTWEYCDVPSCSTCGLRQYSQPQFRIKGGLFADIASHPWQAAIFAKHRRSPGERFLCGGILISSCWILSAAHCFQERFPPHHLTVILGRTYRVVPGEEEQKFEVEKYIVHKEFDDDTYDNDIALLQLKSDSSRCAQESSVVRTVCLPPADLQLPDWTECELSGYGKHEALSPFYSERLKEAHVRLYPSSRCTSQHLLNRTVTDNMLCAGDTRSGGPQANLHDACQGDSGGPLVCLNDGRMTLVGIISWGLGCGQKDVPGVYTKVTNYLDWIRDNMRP
Sequence of Plasminogen (P00747 97-580 limits assumed): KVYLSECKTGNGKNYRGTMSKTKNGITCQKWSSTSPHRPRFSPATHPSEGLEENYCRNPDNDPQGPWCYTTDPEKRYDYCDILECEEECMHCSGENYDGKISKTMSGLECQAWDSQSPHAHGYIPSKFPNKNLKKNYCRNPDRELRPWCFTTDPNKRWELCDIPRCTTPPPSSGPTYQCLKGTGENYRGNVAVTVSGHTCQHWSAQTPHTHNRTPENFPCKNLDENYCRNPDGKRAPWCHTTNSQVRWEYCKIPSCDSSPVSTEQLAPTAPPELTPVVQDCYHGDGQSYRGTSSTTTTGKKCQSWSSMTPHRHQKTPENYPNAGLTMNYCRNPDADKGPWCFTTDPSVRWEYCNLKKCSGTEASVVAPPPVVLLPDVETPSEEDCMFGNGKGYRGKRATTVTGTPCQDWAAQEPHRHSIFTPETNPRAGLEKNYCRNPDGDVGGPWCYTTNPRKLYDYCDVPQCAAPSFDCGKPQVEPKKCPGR
Sequence of Plasminogen (P00747 581-810 limits assumed): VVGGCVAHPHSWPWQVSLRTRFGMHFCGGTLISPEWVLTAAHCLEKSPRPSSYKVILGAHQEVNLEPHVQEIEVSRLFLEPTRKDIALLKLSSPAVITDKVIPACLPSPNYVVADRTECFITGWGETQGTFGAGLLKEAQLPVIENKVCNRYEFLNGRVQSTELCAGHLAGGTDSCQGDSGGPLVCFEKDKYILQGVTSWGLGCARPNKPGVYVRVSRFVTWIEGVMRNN

`CSc1sc(C(=N)N)cc1-c1nc(-c2ccc([N+](=O)[O-])cc2)cs1` came in with a Ki in assay [1] of 270 µM.

On to `CSc1sc(C(=N)N)cc1-c1nc(-c2cnccc2Cl)cs1`, for which the Ki in assay [1] amounted to 164 µM. Still for that read-out and setting: then `COc1ccccc1-c1csc(-c2cc(C(=N)N)sc2SC)n1`, with 130 µM; and `CSc1sc(C(=N)N)cc1-c1nc(-c2cccc(C)c2)cs1`, with 546 µM. On the same count and under the same terms, then `CSc1sc(C(=N)N)cc1-c1nc(-c2ccc3c(c2)OCCCO3)cs1`, with 100 µM; and `CSc1sc(C(=N)N)cc1-c1cccc(-c2ccccc2)c1`, with over 34 µM. Consider `CSc1sc(C(=N)N)cc1-c1nc(-c2cccc(O)c2)cs1`, for which the Ki at Prothrombin is over 25 µM; in assay [2], 1.7 µM; on Plasminogen, 32.1 µM; in assay [1], 86 µM; on Serine protease 1 it was 0.93 µM.

`CSc1sc(C(=N)N)cc1-c1nc(COc2ccccc2)cs1` yielded a Ki in assay [1] of 178 µM. Same read-out and setting: then `CSc1ccc(C(=N)N)s1`, with 6 µM. Still for that read-out and setting: in the case of `CSc1sc(C(=N)N)cc1-c1nc(-c2cccc(Br)c2)cs1` it was 442 µM; in that of `CSc1sc(C(=N)N)cc1-c1cccc(-c2ccccc2)n1`, over 28 µM; in that of `CSc1sc(C(=N)N)cc1-c1nc(-c2ccccc2)c(C)s1`, 305 µM. Still for that read-out and setting: then `CSc1sc(C(=N)N)cc1-c1nc(-c2csc3ccccc23)cs1`, with 141 µM.

`CSc1sc(C(=N)N)cc1-c1nc(-c2ccc3c(c2)OCO3)cs1`: the inhibition constant Ki on Prothrombin is over 29 µM; in assay [2], 1.7 µM; at Plasminogen, 10.8 µM; in assay [1], 91 µM; on Serine protease 1, 0.88 µM. In the same order, the values of `COc1cccc(-c2csc(-c3cc(C(=N)N)sc3SC)n2)c1` are over 30 µM, 1.9 µM, 6.9 µM, 115 µM and 0.86 µM. As for `CSc1sc(C(=N)N)cc1-c1nc(C2CCCCC2)cs1`, the Ki in assay [1] worked out at 641 µM. The same measure, in the same setting: then `CSc1sc(C(=N)N)cc1-c1nc(-c2ccc(S(=O)(=O)Nc3ccc(C)cc3)cc2)cs1`, with 272 µM; and `COc1ccc(-c2csc(-c3cc(C(=N)N)sc3SC)n2)cc1`, with 327 µM; and `CSc1sc(C(=N)N)cc1-c1ccccc1`, with 0.6 µM. In assay [1], `CSc1sc(C(=N)N)cc1-c1nc(-c2ccc3c(c2)OCCO3)cs1` registered an inhibition constant Ki of 108 µM. Turning to `CSc1sc(C(=N)N)cc1-c1nc(-c2ccc3c(c2)CCCC3)cs1`, the Ki in assay [1] was found to be 145 µM. This Ki and that of the compound before are within 1.5-fold of each other. In assay [1], `COc1ccc(-c2csc(-c3cc(C(=N)N)sc3SC)n2)c(OC)c1` had a Ki of 152 µM. The Ki values of the last two compounds are within 1.5-fold of each other. In turn, `CSc1sc(C(=N)N)cc1-c1nc(-c2ccccc2)c(-c2ccccc2)s1` returned a Ki in assay [1] of 982 µM.

Regarding `CSc1sc(C(=N)N)cc1-c1nc(-c2cccnc2Cl)cs1`, affinity in assay [1] was put at a Ki of 154 µM.

As to `CSc1sc(C(=N)N)cc1-c1nc(-c2ccc(O)c(C)c2)cs1`, affinity in assay [1] was put at a Ki of 44 µM. Regarding `CSc1sc(C(=N)N)cc1-c1nc(-c2ccnc(Cl)c2)cs1`, the Ki in assay [1] was 120 µM. On the same count and under the same terms, then `CSc1sc(C(=N)N)cc1-c1nc(C)cs1`, with 815 µM; and `CSc1sc(C(=N)N)cc1-c1nc(-c2ccccc2C)cs1`, with 277 µM; and `CSc1sc(C(=N)N)cc1-c1nc(-c2ccc(Cl)cc2)cs1`, with 99 µM. The compound `CSc1sc(C(=N)N)cc1-c1nc(-c2ccc(Cl)c([N+](=O)[O-])c2)cs1` registered a Ki in assay [1] of 161 µM. Same read-out and setting: in the case of `CSc1sc(C(=N)N)cc1-c1nc(-c2ccc(Cl)cc2Cl)cs1` it was 287 µM. Still for that read-out and setting: then `COC(=O)COc1cccc(-c2csc(-c3cc(C(=N)N)sc3SC)n2)c1`, with 44 µM; and `CSc1sc(C(=N)N)cc1-c1nc(-c2ccc(C)cc2)cs1`, with 94 µM; and `CSc1sc(C(=N)N)cc1-c1nc(-c2ccc(NS(C)(=O)=O)cc2)cs1`, with 94 µM. Still for that read-out and setting: in the case of `CSc1sc(C(=N)N)cc1-c1nc(-c2ccc(-c3ccccc3)cc2)cs1` it was 1740 µM; in that of `CSc1sc(C(=N)N)cc1-c1nc(-c2cccc(NC(=O)c3ccc(F)cc3)c2)cs1`, 47 µM; in that of `CSc1sc(C(=N)N)cc1-c1nc(-c2ccc3ccccc3c2)cs1`, 138 µM.
